Measured values taken from patent publication US6326395A, “Antifungal activity of dicationic molecules” (priority 1999, dated 2001).
In brackets after ≈: the same amount, converted by molar mass. Structures can show the parent of a compound that is named as a salt. Where two headings read alike, the source gives them in different places.

How the values were obtained:
Cryptococcus neoformans = test: in vitro antifungal susceptibility testing (MIC, MFC; broth macrodilution), Tables 1-7; type: cell-based; details: for MIC: read-out: MIC80 (Minimum inhibitory concentration 80%); for MFC: read-out: MFC (Minimum fungicidal concentration)
Text: (§1) The fungi that were employed included two reference strains, C. neoformans var. neoformans H99 and C. albicans A39 and the following clinical isolates: (1) two strains of fluconazole-resistant C. neoformans var. neoformans (135.95 and 114.96); (2) two strains of C. neoformans var. gattii (119.95 and 114.95); (3) two strains of fluconazole-resistant C. albicans (102.96 and 103.96); and (4) one strain each of Torulopsis glabrata (142.91), Candida parapsilosis (111.96), Candida krusei (132.91), C. tropicalis (110.96), Candida lusitaniae (111.92), Fusarium solani (152.89), Aspergillus fumigatus (168.95), and Aspergillus flavus (112.96). Antifungal susceptibility testing was performed using an RPMI-1640 medium (Sigma Chemical Co., St. Louis, Mo.) with glutamine, without sodium bicarbonate, and buffered at pH 7.0 with 0.165 M morpholine-propanesulfonic acid (MOPS).
(§2) In vitro susceptibility testing in the form of Minimum Inhibitory Concentration (MIC) experiments were performed using the broth macrodilution method according to the recommendations of the National Committee for Clinical Laboratory Standards (see 1995 manual). The only difference compared to the standardized procedure was the choice of drug dilutions ranging from 100 to 0.09 μg/ml. Briefly, this procedure specifies an inoculum grown at 35° C. and adjusted to a concentration of 0.5-2.5×10^3 CFU/ml with an incubation of the test performed at 35° C. and reading at 48 hours for all yeasts except for C. neoformans which is interpreted at 72 hr.
(§3) Minimum Fungicidal Concentration (MFC) experiments were adapted from a method by McGinnis (McGinnis, M. R., (1980) "Susceptibility testing and bioassay procedure", p. 431, Academic Press, Inc., New York). Briefly, 10 μl aliquots from tubes with growth inhibition were plated onto Sabouraud agar plates.
(§4) The fungi that were employed included two quality control reference strains, C. neoformans var. neoformansH99 and C. albicans A39 and the following clinical isolates: (1) four strains of C. neoformans var. neoformans (167.95; 135.95; 114.96; and 133.95) of which three were fluconazole-resistant>64 μg/ml (135.95; 114.96; and 133.95); (2) two strains of C. neoformans var. gattii (119.95 and 114.95); (3) two strains of fluconazole-resistant>64 μg/ml C. albicans (102.96 and 103.96); and (4) one strain each of C. glabrata (142.91), Candida parapsilosis (111.96), Candida krusei (132.91), C. tropicalis (110.96), Candida lusitaniae (111.92), Fusarium solani (152.89), Aspergillus fumigatus (168.95), Rhizopus arrhizus (117.89), Paecilomyces lilacinus (137.90), and Aspergillus flavus (112.96). Antifungal susceptibility testing was performed using an RPMI-1640 medium (Sigma Chemical Co., St. Louis, Mo.) with glutamine, without sodium bicarbonate, and buffered at pH 7.0 with 0.165 M morpholinepropanesulfonic acid (MOPS).
as §3, with “p.431,” for “p. 431,”

Candida albicans = test: as above; type: cell-based; details: for MIC: read-out: MIC80 (Minimum inhibitory concentration 80%); for MFC: read-out: MFC (Minimum fungicidal concentration)
Text: as §1, §2, §3, §4
as §3, with “p.431,” for “p. 431,”

[1] = Tables 2-7, three or fewer colonies
[2] = Table 1, three or fewer colonies

| MIC (Cryptococcus neoformans; 35° C., 72 hr) [µg/mL] | MIC (Candida albicans; 35° C., reading at 48 hours) [µg/mL] | SMILES | MFC (Cryptococcus neoformans; [1]) [µg/mL] | MFC (Candida albicans; three or fewer colonies) [µg/mL] | MIC (Cryptococcus neoformans; 72 h) [µg/mL] | MIC (Candida albicans; 48 h) [µg/mL] | MFC (Cryptococcus neoformans; [2]) [µg/mL] | MFC (Cryptococcus neoformans) [µg/mL] | MFC (Candida albicans) [µg/mL] |
| --- | --- | --- | --- | --- | --- | --- | --- | --- | --- |
| 0.78 (≈ 1.75 µM) | 0.78 (≈ 1.75 µM) | c1cc2nc(-c3ccc(-c4nc5ccc(C6=NCCN6)cc5[nH]4)cc3)[nH]c2cc1C1=NCCN1 [Compound 48] | 1.56 (≈ 3.49 µM) | 6.25 (≈ 14 µM) |  |  |  |  |  |
| > 100 | 25 (≈ 76.1 µM) | N=C(N)c1ccc(OCCOc2ccc(C(=N)N)cc2N)c(N)c1 [Compound 2] |  |  |  |  |  |  |  |
|  |  | N=C(N)c1ccc2nc(Cc3nc4ccc(C(=N)N)cc4[nH]3)[nH]c2c1 [Compound 28] |  |  | > 100 | > 100 |  |  |  |
| 0.19 | 0.39 | N=C(N)c1ccc2nc(-c3ccc4oc(-c5nc6ccc(C(=N)N)cc6[nH]5)cc4c3)[nH]c2c1 [Compound 55, 2,5-Bis[2-(5-amidino)benzimidazoyl]benzo[b]furan hydrochloride] | 0.19 | 0.78 |  |  |  |  |  |
| 50 (≈ 171 µM) | 25 (≈ 85.5 µM) | COc1ccc(-c2nc3ccc(C4=NCCN4)cc3[nH]2)cc1 [Compound 59] | 100 (≈ 342 µM) |  |  |  |  |  |  |
| 3.12 (≈ 10.3 µM) | 50 (≈ 164 µM) | N=C(N)c1cccc(-c2ccc(-c3cccc(C(=N)N)c3)o2)c1 [Compound 38] | 25 (≈ 82.1 µM) | 100 (≈ 329 µM) |  |  |  |  |  |
| 0.19 (≈ 0.443 µM) | 0.39 (≈ 0.91 µM) | N=C(N)c1ccc(OCCCOc2ccc(-c3nc4ccc(C(=N)N)cc4[nH]3)cc2)cc1 [Compound 64] | 0.78 (≈ 1.82 µM) | 0.78 (≈ 1.82 µM) |  |  |  |  |  |
| 12.5 (≈ 35.1 µM) | 6.25 (≈ 17.5 µM) | N=C(N)c1ccc(OCCCCOc2ccc(C(=N)N)cc2N)c(N)c1 [Compound 13] |  |  |  |  | 50 (≈ 140 µM) |  |  |
| > 100 | > 100 | CN(C)CCCNC(=O)c1ccc(-c2ccc(-c3ccc(C(=O)NCCCN(C)C)cc3)o2)cc1 [Compound 35] |  |  |  |  |  |  |  |
| ≤ 0.09 | 0.39 (≈ 0.881 µM) | N=C(N)c1ccc(OCCCCOc2ccc(-c3nc4ccc(C(=N)N)cc4[nH]3)cc2)cc1 [Compound 65] | 1.56 (≈ 3.53 µM) | 3.12 (≈ 7.05 µM) |  |  |  |  |  |
| > 100 | > 100 | CN1CCN=C1c1ccc(OCCCCOc2ccc(C3=NCCN3C)cc2)cc1 [Compound 15] |  | > 100 |  |  | > 100 |  |  |
| 1.56 (≈ 4.02 µM) | 12.5 (≈ 32.2 µM) | CCCNC(=N)c1ccc(-c2ccc(-c3ccc(C(=N)NCCC)cc3)o2)cc1 [Compound 24] | 6.25 (≈ 16.1 µM) | 12.5 (≈ 32.2 µM) |  |  |  |  |  |
| 6.25 (≈ 20 µM) | 3.12 (≈ 9.99 µM) | N=C(N)c1ccc(OCCCOc2ccc(C(=N)N)cc2)cc1 [Compound 3] |  | 3.12 (≈ 9.99 µM) |  |  | 6.25 (≈ 20 µM) |  |  |
| 6.25 (≈ 17.5 µM) | 6.25 (≈ 17.5 µM) | N=C(N)c1ccc(OCCCC(O)COc2ccc(C(=N)N)cc2)cc1 (stereo not drawn) [Compound 21] | 12.5 (≈ 35.1 µM) | 12.5 (≈ 35.1 µM) |  |  |  |  |  |
|  |  | N=C(N)c1ccc(NCCCNc2ccc(C(=N)N)cc2[N+](=O)[O-])c([N+](=O)[O-])c1 [Compound 10] |  |  | 100 (≈ 250 µM) | 100 (≈ 250 µM) |  | 100 (≈ 250 µM) | 100 (≈ 250 µM) |
| 6.25 (≈ 16.1 µM) | 25 (≈ 64.3 µM) | CC(C)NC(=N)c1ccc(-c2ccc(-c3ccc(C(=N)NC(C)C)cc3)o2)cc1 [Compound 25] | 50 (≈ 129 µM) | 50 (≈ 129 µM) |  |  |  |  |  |
| 50 (≈ 151 µM) | 50 (≈ 151 µM) | c1cc(-c2nc3ccc(C4=NCCN4)cc3[nH]2)ccc1C1=NCCN1 [Compound 62] |  | > 100 |  |  |  |  |  |
| 12.5 (≈ 33.6 µM) | 12.5 (≈ 33.6 µM) | COc1cc(C(=N)N)ccc1OCCCOc1ccc(C(=N)N)cc1OC [Compound 4] |  | 50 (≈ 134 µM) |  |  | 12.5 (≈ 33.6 µM) |  |  |

| MIC (Cryptococcus neoformans; 35° C., 72 hr) [µg/mL] | MIC (Candida albicans; 35° C., reading at 48 hours) [µg/mL] | SMILES | MFC (Cryptococcus neoformans; [1]) [µg/mL] | MFC (Candida albicans; three or fewer colonies) [µg/mL] | MIC (Cryptococcus neoformans; 72 h) [µg/mL] | MIC (Candida albicans; 48 h) [µg/mL] | MFC (Cryptococcus neoformans; [2]) [µg/mL] | MFC (Cryptococcus neoformans) [µg/mL] | MFC (Candida albicans) [µg/mL] |
| --- | --- | --- | --- | --- | --- | --- | --- | --- | --- |
| 12.5 (≈ 35.1 µM) | 12.5 (≈ 35.1 µM) | N=C(N)c1ccc(OCCC(O)CCOc2ccc(C(=N)N)cc2)cc1 (stereo not drawn) [Compound 22] | 12.5 (≈ 35.1 µM) | 12.5 (≈ 35.1 µM) |  |  |  |  |  |
| 12.5 (≈ 28.1 µM) | 100 (≈ 225 µM) | CCC(CC)NC(=N)c1ccc(-c2ccc(-c3ccc(C(=N)NC(CC)CC)cc3)o2)cc1 [Compound 26] | 12.5 (≈ 28.1 µM) | 100 (≈ 225 µM) |  |  |  |  |  |
| 6.25 (≈ 17.6 µM) | 1.58 (≈ 4.46 µM) | N=C(N)c1cccc(OCCCCCCOc2cccc(C(=N)N)c2)c1 [Compound 19] |  | 12.5 (≈ 35.3 µM) |  |  | 12.5 (≈ 35.3 µM) |  |  |
| 0.78 (≈ 2.04 µM) | 0.78 (≈ 2.04 µM) | N=C(N)c1ccc(NCCCCCCNc2ccc(C(=N)N)cc2N)c(N)c1 [Compound 20] |  | 3.12 (≈ 8.16 µM) |  |  | 3.12 (≈ 8.16 µM) |  |  |
| > 110 | > 100 | CN(C)CCCN(C)C(=O)c1ccc(-c2ccc(-c3ccc(C(=O)N(C)CCCN(C)C)cc3)o2)cc1 [Compound 37] |  |  |  |  |  |  |  |
| 25 (≈ 89.8 µM) | 100 (≈ 359 µM) | N=C(N)c1ccc(-c2nc3ccc(C(=N)N)cc3[nH]2)cc1 [Compound 60] | 50 (≈ 180 µM) | > 100 |  |  |  |  |  |
| 0.78 (≈ 2.11 µM) | 0.78 (≈ 2.11 µM) | N=C(N)c1ccc(Oc2ccc(-c3nc4ccc(C(=N)N)cc4[nH]3)cc2)cc1 [Compound 67] | 6.25 (≈ 16.9 µM) | 0.78 (≈ 2.11 µM) |  |  |  |  |  |
| 25 (≈ 73.4 µM) | 12.5 (≈ 36.7 µM) | N=C(N)c1ccc(NCCCNc2ccc(C(=N)N)cc2N)c(N)c1 [Compound 9] |  | > 100 |  |  | 50 (≈ 147 µM) |  |  |
| > 100 | > 100 | N=C(N)c1ccc2nc(-c3ccc(O)cc3)[nH]c2c1 [Compound 61] | > 100 |  |  |  |  |  |  |
| 6.25 (≈ 16.5 µM) | 0.78 (≈ 2.06 µM) | c1cc(C2=NCCN2)ccc1OCCCCOc1ccc(C2=NCCN2)cc1 [Compound 14] |  | 1.56 (≈ 4.12 µM) |  |  | 12.5 (≈ 33 µM) |  |  |
| 0.78 (≈ 2.3 µM) | ≤ 0.09 | N=C(N)c1ccc(NCCCCCNc2ccc(C(=N)N)cc2)cc1 [Compound 18] |  | 0.39 (≈ 1.15 µM) |  |  | 1.56 (≈ 4.61 µM) |  |  |
|  |  | CN1CCN(c2ccc3nc(-c4ccc5nc(-c6ccc(O)cc6)[nH]c5c4)[nH]c3c2)CC1 [Compound 58] |  |  | 100 (≈ 236 µM) | 25 (≈ 58.9 µM) |  | > 100 | 50 (≈ 118 µM) |
| 3.12 (≈ 7.49 µM) | 12.5 (≈ 30 µM) | CC(C)CNC(=N)c1ccc(-c2ccc(-c3ccc(C(=N)NCC(C)C)cc3)o2)cc1 [Compound 27] | 12.5 (≈ 30 µM) |  |  |  |  |  |  |
| 25 (≈ 69.7 µM) | 50 (≈ 139 µM) | c1cc(-c2nc3ccc(C4=NCCCN4)cc3[nH]2)ccc1C1=NCCCN1 [Compound 63] | 50 (≈ 139 µM) | 100 (≈ 279 µM) |  |  |  |  |  |
| 12.5 (≈ 28 µM) | > 100 | CN(C)CCNC(=N)c1cccc(-c2ccc(-c3cccc(C(=N)NCCN(C)C)c3)o2)c1 [Compound 41] | 50 (≈ 112 µM) |  |  |  |  |  |  |
| 0.39 | 1.56 | CC(C)NC(=N)c1ccc2nc(-c3ccc(CCc4ccc(-c5nc6ccc(C(=N)NC(C)C)cc6[nH]5)cc4)cc3)[nH]c2c1 [Compound 53, 4,4'-Bis[2-(5-N-isopropylamidino)benzimidazoyl]-1,2-diphenylethane hydrochloride] | 0.78 | 6.25 |  |  |  |  |  |
| 100 (≈ 260 µM) | > 100 | c1cc2nc(Cc3nc4ccc(C5=NCCN5)cc4[nH]3)[nH]c2cc1C1=NCCN1 [Compound 29] | > 100 | > 100 |  |  |  |  |  |
